Measurements taken from patent US20250303354A1, “ACIDIC GAS REMOVAL AGENT, ACIDIC GAS REMOVAL METHOD, ACIDIC GAS ABSORPTION DEVICE, AND CLEANING DEVICE” (AGC Inc., priority 2022, published 2025).

Assay: Amounts of carbon dioxide absorption in test liquid (physical absorption, pressure-drop method)
Type: physicochemical
Conditions: 30° C.; for Amount of carbon dioxide absorption, not in coexistence of water a: 100% by mass of compound as test liquid; for Amount of carbon dioxide absorption, not in coexistence of water a / Amount of carbon dioxide absorption, in coexistence of water b: calculated via Henry's constant for P 3.0 MPa; for Amount of carbon dioxide absorption, in coexistence of water b: mixture of 90% by mass of compound and 10% by mass of water; for Carbon dioxide absorption ratio b/a: ratio of absorption in coexistence of water to not in coexistence of water, 3 MPa
Procedure: A 300-mL pressure-resistant container (A) connected to a carbon dioxide cylinder by piping, and a 150-mL pressure-resistant container were prepared, and amounts of carbon dioxide absorption were determined through a procedure of (i) to (iv) shown below. A regulator and a pressure gage were connected between the carbon dioxide cylinder and pressure-resistant container (A), and pressure-resistant container (A) and pressure-resistant container (B) were soaked in a water bath.
(i) The temperature of the water bath was set to 30° C., and pressure-resistant container (B) containing 50 mL of a test liquid was degassed under reduced pressure with a vacuum pump.
(ii) Pressure-resistant container (A) was filled with carbon dioxide depressurized to 0.20 MPa through the regulator, and the pressure at that time was measured. Thereafter, pressure-resistant container (A) and pressure-resistant container (B) were connected together, and the pressure after 1 hour was measured. Assuming that carbon dioxide in an amount corresponding to the reduction of pressure was absorbed in the test liquid, the amount in moles of adsorbed carbon dioxide per unit mass (mol/kg) was calculated.
(iii) The same operation as (ii) was performed at 0.35 MPa, 0.50 MPa, 0.60 MPa, and 0.80 MPa, and the Henry's constant, Hb (MPa·kg/mol), which indicates the pressure dependence of the amount in moles of adsorbed carbon dioxide (mol/kg), was calculated.
(iv) The amount of carbon dioxide absorption per unit mass of the test liquid (g/kg) was calculated from the following expression:
n: molar mass of carbon dioxide=44 (g/mol).
In the calculation, P (MPa) was 3.0 MPa, which is a representative condition for using physical absorption liquid.
For the case that an acidic gas removing agent (100% by mass of compound) was used as a test liquid (not in coexistence of water) and the case that a mixture of 90% by mass of the acidic gas removing agent (compound) and 10% by mass of water was used as a test liquid (in the coexistence of water), the amounts of carbon dioxide absorption in the test liquids were determined.
The carbon dioxide absorption ratio is the ratio (b/a) of the amount of carbon dioxide absorption per unit mass of a mixture of 90% by mass of an acidic gas removing agent and 10% by mass of water, b (g/kg), to the amount of carbon dioxide absorption per unit mass of the acidic gas removing agent, a (g/kg).

Row | Compound | Amount of carbon dioxide absorption, not in coexistence of water a | Amount of carbon dioxide absorption, in coexistence of water b | Carbon dioxide absorption ratio b/a
1 | CCCCOCCOCC(C)OCC(C)OCC(C)O (stereo not drawn) [A-2] | 128 g/kg | 98 g/kg | 0.77
2 | COC(C)COC(C)COC(C)COC(C)COC(C)COC(C)COCCOC(C)(C)C (stereo not drawn) [B-4] | 142 g/kg | 128 g/kg | 0.90
3 | CCCCOCCOCCOCC(C)OCC(C)OCC(C)OCC(C)OCC(C)OC (stereo not drawn) [B-3] | 149 g/kg | 134 g/kg | 0.90
4 | CC(O)COC(C)COC(C)COCC(C)OCC(C)OCC(C)OCC(C)O (stereo not drawn) [A-8] | 104 g/kg | 79 g/kg | 0.76
5 | C=CCOCC(C)OCC(C)OCC(C)OCC(C)OCC(C)OCC(C)OCC(C)OC (stereo not drawn) [B-5] | 129 g/kg | 120 g/kg | 0.93
6 | CCCCOCCOCC(C)OCC(C)OCC(C)OCC(C)OCC(C)OC (stereo not drawn) [B-2] | 157 g/kg | 140 g/kg | 0.89
7 | CCCCOCC(C)OCC(C)OCC(C)OCC(C)O (stereo not drawn) [A-1] | 132 g/kg | 112 g/kg | 0.85
8 | CCCCOCC(C)OCC(C)OCC(C)OCC(C)OCC(C)OCC(C)OCC(C)OC (stereo not drawn) [B-1] | 134 g/kg | 120 g/kg | 0.89

Other lines, results leading:

Row | Amount of carbon dioxide absorption, not in coexistence of water a | Amount of carbon dioxide absorption, in coexistence of water b | Carbon dioxide absorption ratio b/a | Compound
9 | 144 g/kg | 122 g/kg | 0.85 | COC(C)COC(C)COC(C)COCC(C)OCC(C)OCC(C)OCC(C)OC (stereo not drawn) [B-6]
10 | 72 g/kg | 56 g/kg | 0.78 | OCCCCOCCCCOCCCCO [C-3, PTMG250, reference compound]
11 | 140 g/kg | 139 g/kg | 0.99 | COC(C)COC(C)COC(C)COC(C)COC(C)COC(C)COCCOCC(C)C (stereo not drawn) [B-7]
12 | 92 g/kg | 65 g/kg | 0.71 | CC(O)COC(C)COC(C)CO (stereo not drawn) [C-2, tripropylene glycol, reference compound]
